Earlier results, collected in patent US20180221315A1, “COMBINATION THERAPY USING ACAMPROSATE AND D-CYCLOSERINE” (Confluence Pharmaceuticals, LLC, priority 2015, published 2018).

Key:
[1] = biological target: NR1 NMDA receptor subunit (strychnine-insensitive glycine binding site) (Homo sapiens, UniProt Q05586); details: partial agonist at glycine site of NMDA receptor; relative to glycine alone
[2] = test system: cognitive impairment produced by hippocampal lesions, anticholinergic agents, and early social deprivation; details: single dose
[3] = test system: extinction of conditioned fear, maze tasks, visual recognition memory

Structure (SMILES): N[C@@H]1CONC1=O [DCS, D-4-amino-3-isoxazolidone]
- receptor activation, level of maximum stimulation during exposure to glycine alone [1]: 40-50%
- effect on cognitive impairment in animal models [2]: reversed cognitive impairment
- effect on learning and memory in healthy animals [3]: enhanced extinction of conditioned fear, performance on maze tasks, and visual recognition memory
